# Biological target: T1, NADPH oxidase 1 (Homo sapiens, UniProt Q9Y5S8)
# T1 sequence (Q9Y5S8 whole entry): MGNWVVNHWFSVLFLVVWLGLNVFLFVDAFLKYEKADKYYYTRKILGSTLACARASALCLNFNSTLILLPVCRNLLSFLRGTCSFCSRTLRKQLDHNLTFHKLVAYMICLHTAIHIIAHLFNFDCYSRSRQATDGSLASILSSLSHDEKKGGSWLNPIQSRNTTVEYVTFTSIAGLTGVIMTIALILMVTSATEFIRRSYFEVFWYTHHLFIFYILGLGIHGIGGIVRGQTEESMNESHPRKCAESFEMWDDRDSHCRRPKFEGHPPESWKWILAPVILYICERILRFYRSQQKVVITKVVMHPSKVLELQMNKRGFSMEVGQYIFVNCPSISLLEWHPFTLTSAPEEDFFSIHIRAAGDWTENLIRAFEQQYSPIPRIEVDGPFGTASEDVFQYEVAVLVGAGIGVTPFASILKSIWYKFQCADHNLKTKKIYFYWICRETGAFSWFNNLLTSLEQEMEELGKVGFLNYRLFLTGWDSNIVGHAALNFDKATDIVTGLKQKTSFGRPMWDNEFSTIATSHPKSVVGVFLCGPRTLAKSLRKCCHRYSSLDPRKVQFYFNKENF
# Assay: XO enzyme superoxide output inhibition – biochemical, IC50, set 2, NOX1 inhibitor project, late-stage follow-up (AID 435009)
smiles,measurement,value
CN(C)c1ccc(CN=Nc2c(Cl)cncc2Cl)cc1,IC50,> 50 µM
"Oc1c(Br)cc(CN=Nc2c(Cl)cncc2Cl)cc1Br [4-[[2-[3,5-bis(chloranyl)pyridin-4-yl]hydrazinyl]methylidene]-2,6-bis(bromanyl)cyclohexa-2,5-dien-1-one]",IC50,> 50 µM
